Calls of active or inactive are those of the source. Rule as the data show it, for most assays here: actives have a measured EC50 and inactives only a lower limit.

The nature of assay [1]: NIH-3T3 fibroblast cytotoxicity, dose response, cytotoxicity control, cell-based, fluorescence, Alamar Blue, secondary assay (AID 2327).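 Also: NIH-3T3 mouse fibroblasts cultured with fluconazole at 8 µg/mL.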 The class given is functional.
Assay [2] is described as follows: fluconazole-exposed Candida albicans growth modulators – fluorescence, retest, confirmation (AID 2467). The class given is functional, cell-based.
A short description of assay [3]: Trypanosoma cruzi growth suppression in host cells – NIH3T3 host cells, beta-gal luminescence, confirmation (AID 2044).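 Also: intracellular parasites grown in NIH/3T3 mouse fibroblasts as host cells; luminescent beta-galactosidase reporter signal from transgenic T. cruzi replicating inside host cells; inhibitors lower the luminescence signal.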 The class given is functional, cell-based.
A short description of assay [4]: NIH3T3 cell viability loss – ATP luminescence, mouse fibroblasts, counter-screen, dose response (AID 2010).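 Also: cells exposed to compound for about 90 hours before reading.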 The class given is functional, cell-based.
Assay [5] deals with T1, Rac GTPase-activating protein 1 (Homo sapiens, UniProt Q9H0H5).
T1 sequence (Q9H0H5 whole entry): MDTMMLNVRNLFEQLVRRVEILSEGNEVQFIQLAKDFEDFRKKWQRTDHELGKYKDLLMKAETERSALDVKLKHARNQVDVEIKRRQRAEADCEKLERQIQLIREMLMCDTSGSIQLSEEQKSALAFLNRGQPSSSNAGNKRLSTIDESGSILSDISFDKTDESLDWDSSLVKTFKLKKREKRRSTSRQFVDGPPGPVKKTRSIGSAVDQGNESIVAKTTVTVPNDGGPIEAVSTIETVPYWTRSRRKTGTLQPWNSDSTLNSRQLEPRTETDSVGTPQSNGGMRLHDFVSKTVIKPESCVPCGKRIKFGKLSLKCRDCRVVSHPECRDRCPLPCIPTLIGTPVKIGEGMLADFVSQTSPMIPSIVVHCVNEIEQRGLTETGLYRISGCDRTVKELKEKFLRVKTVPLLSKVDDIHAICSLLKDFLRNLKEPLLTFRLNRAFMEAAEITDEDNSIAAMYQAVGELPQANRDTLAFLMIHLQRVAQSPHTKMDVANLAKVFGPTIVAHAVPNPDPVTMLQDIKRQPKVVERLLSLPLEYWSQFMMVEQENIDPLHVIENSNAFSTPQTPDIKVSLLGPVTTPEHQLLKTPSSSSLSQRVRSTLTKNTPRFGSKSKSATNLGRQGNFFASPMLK
Briefly: blockers of MgcRacGAP-driven Rac1 GTP hydrolysis – biochemical, ADP Hunter fluorescence, primary and confirmatory, confirmation (AID 624330). The class given is functional.

Assay [6] has as its target T2, Corticotropin-releasing factor receptor 2/Corticotropin-releasing factor-binding protein (Homo sapiens, UniProt P24387+Q13324).
T2 sequence (Q13324 whole entry): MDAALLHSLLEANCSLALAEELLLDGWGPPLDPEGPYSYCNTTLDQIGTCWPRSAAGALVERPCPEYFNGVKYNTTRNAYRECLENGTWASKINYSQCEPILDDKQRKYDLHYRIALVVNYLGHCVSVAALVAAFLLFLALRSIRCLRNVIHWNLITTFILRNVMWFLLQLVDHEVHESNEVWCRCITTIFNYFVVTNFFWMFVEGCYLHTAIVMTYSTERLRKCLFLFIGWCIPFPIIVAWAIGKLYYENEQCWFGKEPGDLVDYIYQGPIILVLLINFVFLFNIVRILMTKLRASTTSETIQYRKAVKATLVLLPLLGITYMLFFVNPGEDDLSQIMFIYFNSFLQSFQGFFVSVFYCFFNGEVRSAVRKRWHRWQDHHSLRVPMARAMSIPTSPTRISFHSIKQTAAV
T2 sequence (P24387 whole entry): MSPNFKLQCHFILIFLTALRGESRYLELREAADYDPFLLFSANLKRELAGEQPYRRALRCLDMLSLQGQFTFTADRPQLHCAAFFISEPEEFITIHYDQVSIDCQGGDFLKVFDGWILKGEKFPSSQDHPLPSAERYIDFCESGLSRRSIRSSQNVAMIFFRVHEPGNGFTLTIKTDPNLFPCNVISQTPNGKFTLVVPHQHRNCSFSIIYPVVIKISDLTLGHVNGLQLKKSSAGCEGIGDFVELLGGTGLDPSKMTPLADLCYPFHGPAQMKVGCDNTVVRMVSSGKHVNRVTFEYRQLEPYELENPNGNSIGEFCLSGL
Briefly: Dose Response confirmation of uHTS hits for small molecule antagonists of the CRF-binding protein and CRF-R2 receptor complex. The class given is functional. The following applies: read-out: IC50_Mean.

Assay [7] deals with T2, Corticotropin-releasing factor receptor 2/Corticotropin-releasing factor-binding protein. Kind of assay: activators of CRF receptor 2 with binding protein – uHTS hits, confirmation (AID 602473). The class given is functional. The following applies: read-out: EC50_Mean.
Assay [8] is described as follows: viability of uninfected HEp-2 cells – cell-based, HTS, cytotoxicity control for RSV inhibitor project, dose response (AID 2410). The class given is functional. The following applies: human respiratory syncytial virus.
For assay [9], the target named is Cytochrome P450 2D6 (Homo sapiens, UniProt P10635).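 Also: CYP2D6 member of a cytochrome P450 panel assay.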
The target in assay [10] is T3, Cytochrome P450 1A2 (Homo sapiens, UniProt P05177).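 Also: PubChem cytochrome P450 panel assay, CYP1A2 panel member.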
T3 sequence (P05177 whole entry): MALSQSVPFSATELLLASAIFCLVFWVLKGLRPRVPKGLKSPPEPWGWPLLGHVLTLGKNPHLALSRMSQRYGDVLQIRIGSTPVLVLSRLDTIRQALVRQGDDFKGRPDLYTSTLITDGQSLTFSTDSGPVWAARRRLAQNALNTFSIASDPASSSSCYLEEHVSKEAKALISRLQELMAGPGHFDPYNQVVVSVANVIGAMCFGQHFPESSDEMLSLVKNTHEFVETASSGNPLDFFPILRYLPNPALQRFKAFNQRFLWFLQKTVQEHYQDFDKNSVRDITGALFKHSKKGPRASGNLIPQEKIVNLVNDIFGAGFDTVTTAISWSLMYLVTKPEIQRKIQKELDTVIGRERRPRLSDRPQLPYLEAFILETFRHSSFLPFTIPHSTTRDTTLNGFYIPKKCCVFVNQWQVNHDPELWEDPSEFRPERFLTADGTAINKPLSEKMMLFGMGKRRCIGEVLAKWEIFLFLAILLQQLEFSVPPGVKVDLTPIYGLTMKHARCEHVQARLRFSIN

For assay [11], the target named is Cytochrome P450 3A4 (Homo sapiens, UniProt P08684).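 Also: CYP3A4 tested as one member of a cytochrome P450 panel screen.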
Assay [12] concerns H4. Briefly: Luminescence Cell-Based Dose Response HTS to Identify Activators of 5'UTR Stem-Loop Driven Prion Protein mRNA Translation in H4 Neuroglioblastoma Cells. [Related pubchem assays: 1829 (Project Summary), 1814 (Primary HTS)]. The class given is functional. The following applies: Homo sapiens.
The test system of assay [13] is Streptococcus sp. 'group A'. Kind of assay: Streptococcus pyogenes SK(-)GAS viability under kanamycin – luminescence, BacTiterGlo, confirmation, counter-screen for streptokinase expression inhibitor project, dose response (AID 1900). The class given is functional, organism-based.
Assay [14] has as its system Streptococcus. Briefly: GAS UMAA2166 growth inhibition – luminescence, BacTiterGlo, counter-screen for streptokinase expression inhibitor project, dose response (AID 1915).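 Also: potency for reduction of bacterial viability or growth.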 The class given is functional, organism-based.
Assay [15] can be described thus: Luminescence Cell-Based Dose Response HTS to Identify Activators of Luciferase Translation or Activity in H4 […] Cells. [Related pubchem assays: 1829 (Project Summary), 1814 (Primary HTS)]. The class given is functional.

Cytochrome P450 2D6, sequence (P10635 whole entry): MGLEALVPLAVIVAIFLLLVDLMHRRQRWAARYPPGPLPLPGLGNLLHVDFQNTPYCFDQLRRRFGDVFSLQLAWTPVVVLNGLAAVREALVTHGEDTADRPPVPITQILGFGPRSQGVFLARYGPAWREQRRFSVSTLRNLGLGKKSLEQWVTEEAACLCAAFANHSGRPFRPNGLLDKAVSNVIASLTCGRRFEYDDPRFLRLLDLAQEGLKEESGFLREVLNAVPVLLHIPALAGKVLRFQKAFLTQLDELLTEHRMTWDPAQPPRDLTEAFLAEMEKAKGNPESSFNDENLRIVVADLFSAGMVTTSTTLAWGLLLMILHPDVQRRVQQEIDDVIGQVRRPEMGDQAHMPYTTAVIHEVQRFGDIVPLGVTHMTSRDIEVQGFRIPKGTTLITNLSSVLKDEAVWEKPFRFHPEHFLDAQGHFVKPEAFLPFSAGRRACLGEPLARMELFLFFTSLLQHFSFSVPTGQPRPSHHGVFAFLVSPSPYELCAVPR
Cytochrome P450 3A4, sequence (P08684 whole entry): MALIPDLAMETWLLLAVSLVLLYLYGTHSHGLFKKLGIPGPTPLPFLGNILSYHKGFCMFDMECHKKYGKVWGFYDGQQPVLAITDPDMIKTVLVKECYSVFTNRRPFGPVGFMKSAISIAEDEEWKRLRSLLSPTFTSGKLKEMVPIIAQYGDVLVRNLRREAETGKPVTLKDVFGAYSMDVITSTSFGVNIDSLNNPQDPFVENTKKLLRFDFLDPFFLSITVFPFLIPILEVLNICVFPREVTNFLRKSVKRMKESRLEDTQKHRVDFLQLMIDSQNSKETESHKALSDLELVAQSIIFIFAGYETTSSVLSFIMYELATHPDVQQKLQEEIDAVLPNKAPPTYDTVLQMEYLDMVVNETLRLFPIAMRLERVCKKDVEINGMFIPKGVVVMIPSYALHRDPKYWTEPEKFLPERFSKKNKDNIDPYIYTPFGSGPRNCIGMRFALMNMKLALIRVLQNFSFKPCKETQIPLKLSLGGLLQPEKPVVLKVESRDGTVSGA

Take `CCN(c1ccccc1)S(=O)(=O)c1ccc(C(=O)Nc2nnc(C3CC3)o2)cc1`: the EC50 was > 160 µM (inactive) in assay [1], 2.19 µM (active) in assay [2], 2.16 µM (active) in assay [3] and 3.71 µM (active) in assay [4].
Turning to `COc1cccc(C(=O)N2CCN(C3CCN(Cc4ccccc4)CC3)CC2)c1OC`, the IC50 in assay [5] is 120 µM (active).
Consider `COc1ccc2c(c1)c(/C=C/c1cc[n+](C)cc1)cn2C`, for which the values for the EC50 in assay [1] and in assay [2] were > 160 µM (inactive) and 2.23 µM (active), respectively.
As to `Cc1cc(C)nc(NS(=O)(=O)c2ccc(NC(=O)COc3ccccc3)cc2)n1`, the results for the EC50 in assay [1] and in [2] were > 150 µM (inactive) and > 38 µM (not active), respectively.
With `CC(=O)Cc1nsc(Nc2ccc(Cl)cc2)n1`, the EC50 in assay [1] was > 160 µM (inactive); in [2], > 38 µM (not active).
In the case of `O=C(NCCS(=O)(=O)c1ccc(Br)cc1)c1ccccc1Cl`, the IC50 in [6] is > 47.1 µM (inactive). Also, the EC50 in assay [7] is > 53 µM (inactive).
In the case of `CCc1nnc(N/N=C/c2c(C)[nH]c3ccccc23)n1N`, the IC50 in [5] is 51.7 µM (active).
In the case of `O=Nc1c(O)n(Cc2cccc(Cl)c2)c2ccccc12`, the EC50 in [1] was > 150 µM (inactive); in assay [2], 2.99 µM (active). Also, the half-maximal cytotoxic concentration (CC50) in assay [8] is 11.7 µM (active). Besides, the figures for the AC50 in assay [9], in assay [10] and in assay [11] were 22.4 µM (inconclusive), 25.1 µM (inconclusive) and 39.8 µM (inconclusive), respectively.
For `CCOc1ccc(-c2cc(C(=O)N/N=C(\C)c3cccnc3)c3ccccc3n2)cc1`, in assay [12], the EC50 is 84.3 µM (inconclusive).
As for `COc1ccc(CCC(=O)N2CC(C)OC(C)C2)cc1` (stereo not given), the EC50 was > 150 µM (inactive) in assay [1] and > 38 µM (not active) in [2].
As to `CCc1cccc(NC(=S)N(CCCN2CCOCC2)C(C)c2cc3cccc(OC)c3o2)c1` (stereo not given), the IC50 in [6] was > 47.1 µM (inactive). Further, the EC50 in assay [7] is > 53 µM (inactive).
`O=C(COc1ccc(Cl)cc1Cl)NNC(=S)NC(=O)c1ccco1`: the results for the EC50 in assay [13] and in assay [14] were 0.309 µM (active) and 1.57 µM (active), respectively.
Turning to `O=C(Cc1ccc(O)cc1)N/N=C/c1cccnc1`, the EC50 was > 160 µM (inactive) in assay [1] and > 38 µM (not active) in assay [2].
On to `CNS(=O)(=O)c1cccc(C(=O)NCC(c2ccco2)N(C)C)c1` (stereo not given), for which, in assay [6], the IC50 was > 47.1 µM (inactive). In addition, in [7], the EC50 is > 53 µM (inactive).
Regarding `COc1ccccc1OCCCCCCN1CCOCC1`, in [5], the IC50 is 184 µM (active).
Turning to `O=S(=O)(c1ccc(Cl)s1)N1CCCc2cccc(O)c21`, the EC50 was 21.4 µM (active) in assay [1], 6.05 µM (active) in assay [15], 45.3 µM (active) in [12] and > 38 µM (not active) in assay [2].
As for `CCc1ccc(OCCOCCN2CCN(C)CC2)cc1`, the IC50 in [5] was 89.4 µM (active).
With `COc1ccc(C(=O)NC(=S)NNC(=O)c2ccccc2O)cc1`, the EC50 in assay [13] was 2.7 µM (active); in assay [14], 8.79 µM (active); in assay [7] it was > 53 µM (inactive).
Take `COc1ccc(NCCC#N)cc1`: the IC50 in assay [5] is 79.1 µM (active).
As for `COc1cc(C(=O)NC2CC(C)(C)Cc3c2cnn3-c2ccccc2)cc(OC)c1OC` (stereo not given), in assay [6], the IC50 was > 47.1 µM (inactive). Further, the EC50 in assay [7] is > 53 µM (inactive).
Turning to `Nc1c2c(nc3sc4c(c13)CCCCC4)CCCCC2`, the values for the EC50 in [1] and in [2] were > 160 µM (inconclusive) and 3.83 µM (active), respectively.
Regarding `O=C(NCCc1c[nH]c2ccccc12)c1cnc2sccn2c1=O`, the EC50 was 53 µM (active) in assay [15] and 54.8 µM (inconclusive) in [12].
As to `COc1ccc(/C=N/c2ccc3[nH]ncc3c2)c(O)c1`, the IC50 in [5] was 35.3 µM (active).
Regarding `CCc1ccc2[nH]c(C(=O)Nc3ccc4c(c3)OCO4)cc2c1`, the IC50 in assay [6] was > 47.1 µM (inactive). In assay [7], the EC50 was > 53 µM (inactive).
Regarding `CSc1ccc(CNC(=O)Cc2ccc(NC(=O)C3=C(C)OCCS3)cc2)cc1`, the EC50 in assay [15] is 1.92 µM (active).
On to `COc1cc(/C=N/NC(=O)c2ccc(-n3cccc3)cc2)ccc1O`, for which the IC50 in assay [5] was 23.9 µM (active).
Same read-out and setting: as for `COc1cc(/C=N/NC(=O)CCc2nnc(O)nc2O)ccc1O`, the figure is 32.5 µM (active).
For the compound `COc1ccc(C(=O)N(c2ccccc2)C2C=CS(=O)(=O)C2)cc1` (stereo not given), the IC50 in assay [6] was > 47.1 µM (inactive). The EC50 in [7] was > 53 µM (inactive).
Consider `COc1ccc(CN2CCN(Cc3cccc(F)c3)CC2)cc1OC`, for which the IC50 in assay [5] was 83 µM (active).
As to `CCOc1ccccc1-n1c(C)nc2cc(C(=O)O)ccc21`, the IC50 in [6] was > 47.1 µM (inactive). The EC50 in [7] was > 53 µM (inactive).
On to `O=C1C(/C=N/c2ccc(F)cc2)=C(O)c2ccccc21`, for which the EC50 was 0.173 µM (active) in assay [15] and 0.38 µM (active) in [12].
Consider `Cc1ccc(-n2nc(C)c(Sc3ccccc3[N+](=O)[O-])c2N)cc1`, for which the IC50 in assay [6] is > 47.1 µM (inactive). For the same compound, the EC50 in assay [7] is > 53 µM (inactive).
With `O=C(Cn1c(C(=O)NCC2CCCO2)cc2sccc21)c1ccccc1` (stereo not given), the IC50 in assay [5] is 102 µM (active).
The same measure, in the same setting: as for `CC(=C/c1ccccc1)/C=N/n1c(S)nnc1-c1ccco1`, the figure is 86.4 µM (active).
Turning to `Sc1nnc(-c2cccs2)n1/N=C/c1cccs1`, the EC50 in [1] was > 150 µM (inactive); in assay [2], 1.93 µM (active). Moreover, the IC50 in assay [5] is 126 µM (active).
With `O=[N+]([O-])c1ccc(N2CCOCC2)cc1NCc1ccccc1`, in assay [6], the IC50 was > 47.1 µM (inactive). Further, the EC50 in [7] is > 53 µM (inactive).
`COc1cc(/C=C/C(=O)OCC(=O)Nc2ccc(S(=O)(=O)N3CCCC3)cc2)ccc1O`: in [5], the IC50 is 60 µM (active).
